From the Deep4Chem optical property database come the findings set out here.

Molecules are shown by their SMILES.

The data set is described as follows: photoluminescence quantum yield (fraction); solvent given as SMILES.
[1] abbreviates: in O=P(c1ccccc1)(c1ccccc1)c1ccccc1Oc1ccccc1P(=O)(c1ccccc1)c1ccccc1.

With `C[Si]1(C)c2ccccc2-c2ccccc21`, the photoluminescence quantum yield (in ClCCl) came out at 0.14.

The compound `N#Cc1ccc(-c2cn3ccc[n+]3[n-]2)cc1` gave a photoluminescence quantum yield (in ClCCl) of 0.18.

The compound `CCCCn1c(-c2ccc(-c3nnc(-c4ccc(-c5nc6c7ccccc7c7ccccc7c6n5CCCC)cc4)o3)cc2)nc2c3ccccc3c3ccccc3c21` displayed a photoluminescence quantum yield (in ClCCl) of 0.78.

For the compound `CC(C)[Si](C#Cc1ccc(C#C[Si](C(C)C)(C(C)C)C(C)C)c2nc3c(nc12)Cc1ccccc1-3)(C(C)C)C(C)C`, the photoluminescence quantum yield (in CCCCCC) came to 0.04.

Under “in CS(C)=O”, `Cc1cccc2cc(-c3cc4cccc(C)c4oc3=O)oc12` came in with a photoluminescence quantum yield of 0.88.

As to `C#CCn1c2ccccc2c2cc(/C=C/c3c(Cl)c(C)c4n3[B-](F)(F)[N+]3=C(C)C(Cl)=C(C)C3=C4c3ccc(I)cc3)ccc21`, the photoluminescence quantum yield (in CC#N) turned out to be 0.43, the photoluminescence quantum yield (in CS(C)=O) came to 0.33 and the photoluminescence quantum yield (in ClC(Cl)Cl) is 0.62.

Take `F[Si](c1c2ccccc2cc2ccccc12)(c1c2ccccc2cc2ccccc12)c1c2ccccc2cc2ccccc12`: the photoluminescence quantum yield is 0.033 (in C1CCOC1) and 0.036 (in ClC(Cl)Cl).

Regarding `O=c1c2cccc3cccc(c32)c2nc3ccccc3n12`, the photoluminescence quantum yield (in ClCCl) is 0.71.

Regarding `COc1ccc(-n2nc(C(=O)N3CCCC3)c(N3CCCC3)n2)cc1`, the photoluminescence quantum yield runs as follows: (in CC#N) 0.555; (in CCCCCC) 0.94; (in CCO) 0.9; (in CN(C)C=O) 0.77; (in ClC(Cl)Cl) 0.64.

On to `CCCCc1ccc(-n2c3c4cc(F)ccc4nnc3c3c2c2nnc4ccc(F)cc4c2n3-c2ccc(CCCC)cc2)cc1`, for which, for the setting “in Cc1ccccc1”, the photoluminescence quantum yield amounted to 0.

For the setting “in CC#N”, `Fc1ccc(/C=C/c2nc3c4ccccc4c4ccccc4c3o2)cc1` came in with a photoluminescence quantum yield of 0.24.

For `COc1ccc(/C=C/C2=[O+][B-](F)(F)OC(/C=C/c3ccc(OC)cc3)=C2c2ccccc2)cc1`, the photoluminescence quantum yield turned out to be 0.42 (in CC#N); 0.41 (in CC(C)=O); 0.34 (in CCOC(C)=O); 0.27 (in CCOCC); 0.24 (in ClC(Cl)(Cl)Cl); 0.41 (in ClCCl).

On to `CCOC(=O)c1ccc(O)c(-c2[nH]c(=O)n3c2-c2ccccc2C3=O)c1`, for which the photoluminescence quantum yield by setting is: (in CC#N) 0.49; (in CO) 0.4; (in ClCCl) 0.59.

Take `COc1cc(-c2ncc(-c3ccncc3)o2)cc(OC)c1OC`: for the setting “in ClCCl”, the photoluminescence quantum yield was 0.54.

Regarding `CN(C)c1ccc(/C=C/c2cc(/C=C/c3ccc(N(C)C)cc3)ncn2)cc1`, the photoluminescence quantum yield (in ClCCl) was 0.4.

The compound `COc1cc2c3c4c(c5ccc(C(C)(C)C)cc5c5c(OC)cc(OC)c(c2c(OC)c1OC)c45)=[N+]1C3=Nc2c3c4cc(OC)c(OC)c(OC)c4c4c(OC)cc(OC)c5c6cc(C(C)(C)C)ccc6c(c3c54)n2[B-]1(F)F` showed a photoluminescence quantum yield (in Cc1ccccc1) of 0.13.

As to `N#Cc1nc(-c2ccc(N3c4ccccc4Oc4ccccc43)cc2)c(-c2ccc(N3c4ccccc4Oc4ccccc43)cc2)nc1C#N`, the photoluminescence quantum yield (in c1cc(-c2cccc(-n3c4ccccc4c4ccccc43)c2)cc(-n2c3ccccc3c3ccccc32)c1) came to 0.15.

In turn, `N#Cc1c(-n2c3ccccc3c3ccccc32)cccc1-n1c2ccccc2c2ccccc21` had a photoluminescence quantum yield (in Cc1ccccc1) of 0.13 and a photoluminescence quantum yield under setting [1] of 0.28.

Turning to `[NH3+]C(Cc1ccc(O)cc1)C(=O)[O-]` (configuration not stated), for the setting “in O”, the photoluminescence quantum yield was found to be 0.13.

Take `Nc1ccc(N2C(=O)c3ccc4c5ccc6c7c(ccc(c8ccc(c3c48)C2=O)c75)C(=O)N(c2ccc(N)cc2)C6=O)cc1`: under “in CN(C)C=O”, the photoluminescence quantum yield worked out at 0.2.

`CCCCCCOC(=O)/C=C/C1=CC2=C(c3c(C)cc(C)cc3C)c3cc(/C=C/C(=O)OCCCCCC)cn3[B-](F)(F)[N+]2=C1` displayed a photoluminescence quantum yield (in ClCCl) of 0.68.

Where the note is “in O”, `COc1cc(/C=C/C(=O)O)ccc1O` gave a photoluminescence quantum yield of 0.002.

`Clc1ccc(/C=C(\c2ccccc2)c2nc3ccccc3o2)cc1` displayed a photoluminescence quantum yield (in CO) of 0.002.

In the case of `Cc1nnc(-c2cc(-c3nnc(C)o3)c(-n3c4ccccc4c4ccccc43)cc2-n2c3ccccc3c3ccccc32)o1`, the photoluminescence quantum yield reads like this: (in Cc1ccccc1) 0.068; under setting [1], 0.59.

Under “in C1CCOC1”, `CCCc1ccc2c(c1)cc1n2B2c3c4c-1cccc4cc1cccc(c31)-c1cc3cc(CCC)ccc3n12` registered a photoluminescence quantum yield of 0.39.

Consider `N#Cc1nc(N(Cc2ccccc2)Cc2ccccc2)c(C#N)nc1N(Cc1ccccc1)Cc1ccccc1`, for which, for the setting “in ClC(Cl)Cl”, the photoluminescence quantum yield is 0.76.

For `O=S(=O)(c1ccc(-c2ccc3c(c2)c2ccccc2n3-c2ccccc2)cc1)c1ccc(-c2ccc3c(c2)c2ccccc2n3-c2ccccc2)cc1`, the photoluminescence quantum yield (in Cc1ccccc1) was determined as 1.

Turning to `CN(C)c1ccc(/C=C/c2ncccn2)cc1`, the photoluminescence quantum yield (in ClCCl) stood at 0.01.

Consider `O=C1/C(=C2\Sc3ccccc3C2=O)Sc2ccccc21`, for which the photoluminescence quantum yield (in C1COCCO1) is 0.54; the photoluminescence quantum yield (in CN(C)C=O) amounted to 0.353; the photoluminescence quantum yield (in CO) was 0.035; the photoluminescence quantum yield (in CS(C)=O) came to 0.013; the photoluminescence quantum yield (in c1ccccc1) worked out at 0.72.

Regarding `O=C(O)c1ccc(-c2nc(-c3ccccc3)c3ccccn23)cc1`, where the note is “in CC#N”, the photoluminescence quantum yield was 0.13.

For the setting “in CCO”, `COC(=O)CCC(NC(=O)CCNc1cccc2ccccc12)C(=O)OC` (configuration not stated) returned a photoluminescence quantum yield of 0.57.

Regarding `O=C1c2cccc3cc4ccccc4c(c23)C(=O)N1Cc1ccccn1`, the photoluminescence quantum yield is, setting by setting: (in C1CCOC1) 0.83; (in CCCCCC) 0.61; (in CCO) 0.91; (in Cc1ccccc1) 0.69; (in ClCCl) 0.93.

As for `CCC12C(=C3C(=C4c5ccc(-c6ccc(C)s6)cc5S(=O)(=O)C41CC)C(F)(F)C(F)(F)C3(F)F)c1ccc(-c3ccc(C)s3)cc1S2(=O)=O` (configuration not stated), the photoluminescence quantum yield (in C1COCCO1) was found to be 0.78, the photoluminescence quantum yield (in CC#N) was 0.67, the photoluminescence quantum yield (in CCCCCC) was 0.72 and the photoluminescence quantum yield (in CCO) is 0.62.

Compound `COCCOCCOCCOCC(COCCOCCOCCOC)Oc1cc(/C=C/c2ccc(/C=C(\C#N)c3ccncc3)cc2)c(OC(COCCOCCOCCOC)COCCOCCOCCOC)cc1/C=C/c1ccc(/C=C(\C#N)c2ccncc2)cc1` displayed a photoluminescence quantum yield (in ClCCl) of 0.45.

`CN(C)c1ccc(C#Cc2ccc3ccc4ccc(C#Cc5ccc(N(C)C)cc5)c5ccc2c3c45)cc1`: the photoluminescence quantum yield came to 0.632 (in CCCCCC), 0.256 (in CO) and 0.534 (in ClCCl).

Consider `O=c1c2ccccc2c2c3c(cccc13)c(-c1ccccc1)c1c3cccc4cccc(c43)c12`, for which the photoluminescence quantum yield amounted to 0.91 (in CC#N) and 0.97 (in CO).

`F[Si-](F)(c1ccccc1)(c1ccccc1)c1c2ccccc2cc2ccccc12` registered a photoluminescence quantum yield (in C1CCOC1) of 0.76.

Compound `CCCCN(CCCC)c1ccc(C#Cc2cc(C#Cc3c(F)c(F)c(F)c(F)c3F)c(C#Cc3ccc(N(CCCC)CCCC)cc3)cc2C#Cc2c(F)c(F)c(F)c(F)c2F)cc1` registered a photoluminescence quantum yield (in ClCCl) of 0.14.

Regarding `CN(C)c1ccc(/C=C/C=C/C2=NC3C(=O)NC(N)=NC3N2[C@H]2C[C@H](O)[C@@H](CO)O2)cc1` (some centres not stated), the photoluminescence quantum yield turned out to be 0.7 (in C1COCCO1), 0.75 (in CC#N) and 0.58 (in CO).

With `CCN1C(=CC2=C([O-])C(=Cc3[se]c4ccccc4[n+]3CC)C2=O)[Se]c2ccccc21`, the photoluminescence quantum yield (in CC(C)O) stood at 0.14.

The compound `COc1ccc(/N=N/c2c(O)c3ccccc3n(C)c2=O)c(S(=O)(=O)O)c1` gave a photoluminescence quantum yield (in CS(C)=O) of 0.03.

Take `O=c1c2cc(F)c(O)cc2oc2cc(O)c(F)cc12`: under “in CCO”, the photoluminescence quantum yield was 0.26.

In turn, `Cc1cc(-c2ccccc2C)cc(C)[o+]1` yielded a photoluminescence quantum yield (in CC#N) of 0.1 and a photoluminescence quantum yield (in ClCCl) of 0.05.

With `CN(C)/C=N\c1ccc2c3c(cccc13)C(=O)c1ccccc1-2`, the photoluminescence quantum yield is 0.23 (in C1CCOC1); 0.31 (in CCCCCC); 0.26 (in CCO); 0.28 (in CCOC(C)=O); 0.2 (in CN(C)C=O); 0.27 (in CO). Also, the photoluminescence quantum yield runs as follows: (in Cc1ccccc1) 0.66; (in ClC(Cl)(Cl)Cl) 0.24; (in ClC(Cl)Cl) 0.55; (in ClCCl) 0.55; (in c1ccccc1) 0.67.

On to `CCOC(=O)C1=C(C(=O)OCC)C2(c3ccccc3-c3ccccc32)[C@@H](c2ccc([N+](=O)[O-])cc2)C=C2c3cc(OC)c(OC)cc3CCN21`, for which the photoluminescence quantum yield (in ClCCl) is 0.00075.

Turning to `COc1ccc(C2=[N+]3C(=Nc4c(-c5ccccc5)c(Br)c(-c5ccc(OC)cc5)n4[B-]3(F)F)C(c3ccccc3)=C2Br)cc1`, the photoluminescence quantum yield (in ClC(Cl)Cl) worked out at 0.1 and the photoluminescence quantum yield (in ClCCl) came out at 0.1.

As to `COc1ccc(C2=CC(c3ccc4cc(N(C)C)ccc4c3)=[O+][B-](F)(F)O2)cc1`, the photoluminescence quantum yield was 0.52 (in C1CCOC1); 0.01 (in CC#N); 0.12 (in CC(C)=O); 0.007 (in CS(C)=O); 0.95 (in Cc1ccccc1); 0.99 (in ClC(Cl)Cl). The compound also showed a photoluminescence quantum yield (in ClCCl) of 0.62.

`CCCCCOc1cc2oc(=O)c3c4ccc(C#N)cc4c4ccc5cccc6c(c1)c2c3c4c56` came in with a photoluminescence quantum yield (in C1CCOC1) of 0.499.

Turning to `COc1cc(OC)cc(C2=C(c3cc(OC)c(OC)c(OC)c3)C3=Nc4c(-c5cc(OC)c(OC)c(OC)c5)c(-c5cc(OC)cc(OC)c5)c(-c5ccc(C(C)(C)C)cc5)n4[B-](F)(F)[N+]3=C2c2ccc(C(C)(C)C)cc2)c1`, the photoluminescence quantum yield (in Cc1ccccc1) is 0.01.

Regarding `Cc1nc2c(ccc3c2sc(/C=C/C=C/c2ccc(N(C)C)cc2)[n+]3C)s1`, the photoluminescence quantum yield is 0.032 (in CO) and 0.16 (in ClC(Cl)Cl).

The compound `CN1/C(=C\C=C\C2=C3C=CC(c4ccccc4)=[N+]3[B-](F)(F)n3c2ccc3-c2ccccc2)C(C)(C)c2ccccc21` had a photoluminescence quantum yield (in CC#N) of 0.1.
